# Measured values taken from patent US7749709B2, “SOCS-1 gene methylation in cancer” (The Johns Hopkins University School of Medicine, priority 2001, dated 2010).
# “Also recorded” adds a separate entry of the source. Where two headings read alike, the source gives them in different places.
# What was measured:
# [1] = tested on: STAT3; assay: Western blot analysis of STAT3 tyrosine phosphorylation in HCC cell lines treated with AG490; type: cell-based, human; settings: 25 μM AG490 for 3 hr or 24 hr
# Description: Cells at approximately 70% confluence were harvested and lysed on ice in a buffer containing 20 mM Tris (pH 8.0), 1% NONIDET P-40 detergent, 0.1% SDS, 150 mM NaCl, 50 mM NaF, 1 mM Na3VO4, 10 μg/ml leupeptin, 10 μg/ml aprotinin, 1 μg/ml pepstatin, and 1 mM phenylmethylsulfonyl fluoride. Following incubation for 30 min on ice, the lysates were cleared of debris by centrifugation at 15,000×g for 30 min. Eight hundred μg of protein lysates were incubated with 5 μg anti-JAK2 antibody (Upstate Biotechnology; Waltham Mass.) for 1 hr on ice. Thirty μl protein A+G (Oncogene Research Products; Boston Mass.) was added to the lysates and incubated for 1 hr at 4° C. with rotation.
# Immune complexes were recovered by centrifugation, washed 5 times with the lysis buffer, then boiled for 5 min in SDS-PAGE sample buffer. The samples were resolved by SDS-PAGE, and electroblotted onto a nitrocellulose membrane. The blot was blocked with 5% skim milk in PBS for 1 hr at room temperature (RT), then incubated with 1 μg/ml of anti-phosphotyrosine antibody (4G10; Upstate biotechnology) over night at 4° C.
# After several washes, a 1:5000 dilution of anti-mouse horseradish peroxidase-conjugated secondary antibody (Amersham Pharmacia Biotech) was added and incubated for 1 hr at RT. After several washes, the immunoreactive bands were visualized by an enhanced chemiluminescence substrate (Amersham Pharmacia Biotech) and exposed to HYPERFILM film (Amersham Pharmacia Biotech). The blot was stripped with a buffer composed of 62.5 mM Tris (pH 6.8), 2% SDS and 100 mM θ-mercaptoethanol at 50° C. for 30 min, washed, blocked with 5% milk in PBS, then re-probed with the anti-JAK2 antibody (Upstate Biotechnology).
# To analyze inhibition of STAT3 by AG490, cells were treated with 25 μM AG490 for 3 hr or 24 hr. Eighty μg total protein samples from drug treated and untreated cells were separated by SDS-PAGE, and analyzed by western blot analysis. Anti-phospho-STAT3 antibody (New England Biolabs) was used to detect tyrosine phosphorylation of STAT3 according to the conditions recommended by the manufacturer. […]
# [2] = tested on: HCC cells exhibiting methylation silenced SOCS-1 gene expression; assay: Colony formation assay with AG490; type: cell-based, human; settings: 5 μM AG490 for 3 weeks
# Description: For AG490 treatment, 1×10^4 cells were plated in 100 mm tissue culture dishes, and grown in complete medium in the absence or presence of 5 μM AG490 for 3 weeks. In some experiments, cells were treated with 25 μM AG490 for 3 hr or 24 hr.
# [3] = tested on: normal liver cells; assay: Effect of AG490 on normal liver cells; type: cell-based
# [4] = tested on: K562 cells; assay: Flow cytometric analysis of apoptosis (annexin V binding, PI counterstaining); type: cell-based, human; settings: 50 μM AG490, 96 hr; no SOCS-1 methylation
# Description: (§1) For gene expression studies, U266 and XG1 cells were incubated in complete culture medium with a final concentration of 1.0 μM 5-azacytidine (Sigma). After 4 days, drug-treated and untreated cells were harvested and subjected to RNA extraction. In order to assess the sensitivity to AG490, cell lines K562, U266 and XG1 were incubated with or without a final concentration of 50 μM AG490 for 4 days prior to analysis. For STAT3 phosphorylation analysis, cell lines U266 and XG1 were initially starved for 16 hr in culture medium supplemented with only 1% FCS and no cytokine. Cells were then washed in cold PBS and resuspended in their appropriate complete medium with or without 50 μM AG490 and samples were harvested for protein analysis after 1 hr and 24 hr.
# (§2) Apoptosis was assessed by annexin V binding and counterstaining with propidium iodide (PI) using a commercially available kit (Pharmingen) according to the manufacturer's instructions. Fluorescence analysis was performed on a BD LSR flow cytometer (Becton Dickinson).
# [5] = tested on: U266 cells; assay: as above; type: cell-based, human; settings: 50 μM AG490, 96 hr; SOCS-1 hypermethylated
# Description: as §1, §2
# [6] = tested on: XG1 cells; assay: as above; type: cell-based, human; settings: 50 μM AG490, 96 hr; SOCS-1 hypermethylated
# Description: as §1, §2
# [7] = tested on: STAT3; assay: Western blot analysis of STAT3 phosphorylation in MM cell lines; type: cell-based, human; settings: 50 μM AG490, 1 hr and 24 hr
# Description: as §1
# Cell lysis and western blot analysis for STAT3 phosphorylation were performed as described in Example 1 (see, also, Yoshikawa et al., supra, 2001).
# [8] = tested on: HL60; assay: Flow cytometric analysis of apoptosis in AML cell line; type: cell-based, human; settings: 50 μM AG490, 96 hr; SOCS-1 not methylated
# Description: (§3) HL60 cells were obtained from the American Type Culture Collection and KG1a cells from the German Collection of Microorganisms and Cell Cultures. Both cell lines were routinely cultured in IMDM (Invitrogen Corp.) with 20% FCS (Gemini Bio-Products). In order to assess the sensitivity to AG490, HL60 and KG1a cells were incubated with or without a final concentration of 50 μM AG490 (Sigma) for 96 hr prior to analysis.
# (§4) The percentage of apoptotic cells was determined by annexin V-binding and counterstaining with propidium iodide (PI), and fluorescence analysis was performed as described in Example 2.
# [9] = tested on: KG1a; assay: as above; type: cell-based, human; settings: 50 μM AG490, 96 hr; SOCS-1 CpG island methylated
# Description: as §3, §4
# [10] = tested on: STAT1; assay: Western blot analysis of STAT tyrosine phosphorylation in SOCS-1 methylated leukemia cells; type: cell-based, human; settings: cell line with SOCS-1 methylation, following treatment with AG490
# Description: (§5) Western blot analysis was performed as described in Example 1. Blots were stained using anti-phospho-STAT1, anti-phospho-STAT3 or anti-phospho-STAT5 antibody (New England Biolabs) to detect tyrosine phosphorylation of STAT protein. After removing the antibody, the blot was analyzed using anti-STAT1, anti-STAT3 or anti-STAT5 antibody, respectively (BD Transduction Laboratories).
# [11] = tested on: STAT3; assay: as above; type: cell-based, human; settings: cell line with SOCS-1 methylation, following treatment with AG490
# Description: as §5
# [12] = tested on: STAT5; assay: as above; type: cell-based, human; settings: cell line with SOCS-1 methylation, following treatment with AG490
# Description: as §5
# [13] = tested on: normal haematopoietic progenitor cells; settings: at concentrations similar to those used in the present studies; cited from earlier work
# [14] = tested on: B cell leukemia cells, in which JAK2 was constitutively activated; settings: cited from earlier work
# [15] = tested on: STAT3; settings: MM cell line XG2; cited from earlier work
# [16] = tested on: myeloma cells; settings: cited from earlier work
# [17] = tested on: leukemic Sezary cells; settings: cited from earlier work
# [18] = tested on: ALL; settings: cited from earlier work
# [19] = tested on: SOCS-1 gene expression; assay: Semi-quantitative RT-PCR of SOCS-1 expression in MM cell lines; type: cell-based, human; settings: 1 μM for 96 hr
# Description: as §1
# Total RNA was isolated using a commercially available kit (Qiagen) according to the manufacturer's instructions. Approximately 3 μg RNA per sample were reverse transcribed with SuperScript™ reverse transcriptase (Invitrogen). For PCR, 1 μl of the cDNA preparation was amplified using the following SOCS-1 primers: […]
# Reactions were hot-started at 95° C. for 5 min and held at 80° C. before addition of 1.25 U of Taq polymerase (Invitrogen Corp.). […]
# [20] = tested on: patients with AML and myelodysplastic syndrome; settings: cited from earlier work
structure (smiles),measurement,setting,value
N#C/C(=C/c1ccc(O)c(O)c1)C(=O)NCc1ccccc1 [AG490],STAT3 phosphorylation,"[1]; HuH-1 cells (SOCS-1 inactivated, JAK2 activated)",time dependent reduction in STAT3 phosphorylation
same,STAT3 phosphorylation,"[1]; SNU-387 cells (SOCS-1 inactivated, JAK2 activated)",time dependent reduction in STAT3 phosphorylation
same,STAT3 phosphorylation,[1]; SOCS-1 expressing SNU-182 cells,but not in the SOCS-1 expressing SNU-182 cells
same,growth suppression (number of colonies),[2],effectively suppressed the growth
same,effect on normal liver cells,[3],no effect
same,apoptosis induction,[4],only a small effect
same,apoptosis induction,[5],induced apoptosis
same,apoptosis induction,[6],induced apoptosis
same,STAT3 phosphorylation,[7]; U266 cells,inhibited STAT3 phosphorylation
same,STAT3 phosphorylation,[7]; XG1 cells,only minor effects
same,apoptosis induction,[8],no effect; also recorded: only weak induction of apoptosis
same,apoptosis induction,[9],induced apoptosis
same,tyrosine phosphorylation of STAT1,[10],decreased
same,tyrosine phosphorylation of STAT3,[11],decreased
same,tyrosine phosphorylation of STAT5,[12],no change
same,growth of normal haematopoietic progenitor cells,[13],does not suppress the growth
same,growth of B cell leukemia cells,[14],suppress growth
same,STAT3 phosphorylation,[15],inhibition of STAT3 phosphorylation
same,apoptosis induction,[16],induces apoptosis
same,apoptosis induction,[17],induces apoptosis
same,effectiveness in the treatment of ALL,[18],effectiveness
Nc1ncn([C@H]2C[C@H](O)[C@@H](CO)O2)c(=O)n1 [5-aza-2′-deoxycytidine],SOCS-1 gene expression,[19]; U266 cells,reactivation of SOCS-1 gene expression
same,SOCS-1 gene expression,[19]; XG1 cells,reactivation of SOCS-1 gene expression
same,clinical efficacy,[20],clinically effective
